According to patent US12618112B2, “Epigenetic moderators of naltrexone efficacy in reducing heavy drinking in individuals diagnosed with alcohol use disorder” (MUSC Foundation for Research Development, priority 2021, dated 2026):

Key:
[1] = tested on: treatment-seeking AUD patients; test: 16-week randomized, placebo-controlled naltrexone trial; percent heavy drinking days (PHDD) by promoter/VNTR methylation subgroup; assay type: in vivo, human; conditions: for effect of naltrexone, relative to placebo, on PHDD: 16-week trial
Description: Overview. Detailed methods for the parent RCT, including a CONSORT diagram, are described in Anton et al, 2020 and Schacht et al, 2017. The Medical University of South Carolina Institutional Review Board approved all procedures, and all participants provided informed consent before participation. The study consisted of an initial assessment session, a baseline visit, and 9 follow-up visits over the course of a 16-week treatment period. Briefly, participants seeking AUD treatment were recruited from the community with media advertisements, assessed for inclusion/exclusion criteria, and genotyped for rs1799971. One of the aims of the parent RCT was to test the effect of rs1799971 genotype on naltrexone efficacy, so participants who carried the minor (G) allele were over-selected, such that these individuals ultimately comprised ˜50% of the 146 participants randomized to medication.
Participants. Participants were required to be ages 18-70; report heavy drinking (at least five/four standard drinks per day for men/women) on at least 50% of the days in the 90 days before assessment; and meet DSM-IV (Diagnostic and Statistical Manual of Mental Disorders, revised 4th edition) diagnostic criteria for Alcohol Dependence, as assessed by the Structured Clinical Interview for DSM-IV (First et al, 2002). Participants were also required to self-identify as Caucasian or Asian, secondary to low rs1799971 G-allele frequency among individuals of African descent; we previously reported that analysis of population allele frequencies for 50 SNPs included on the methylation assay used here indicated a high degree of correspondence between self-reported and SNP-identified ancestry. […] Exclusion criteria were: current psychotropic medication use other than antidepressants (for which a stable dose for at least one month was required); current DSM-IV Axis I diagnosis or suicidal/homicidal ideation; history of significant medical illness; liver enzyme (ALT or AST) levels>three times normal; and past-month naltrexone, disulfiram, or acamprosate use. Female participants could not be pregnant or nursing. The Table below lists demographic characteristics for the sample. Medication, randomization, and assessment. Participants were required to maintain abstinence for at least four days before medication randomization, and were then urn randomized (Stout et al, 1994) to receive naltrexone (25 mg for two days, then 50 mg thereafter) or placebo for 16 weeks. Randomization was stratified by rs1799971 genotype, with sex, smoking status (non-smoker vs. smoker, defined as ≥10 cigarettes per day), cocaine use, antidepressant use, and AUD family history balanced across medication groups. […] Participants and investigators were blind to genotype and medication assignment. After randomization, participants returned at weeks 1, 2, 3, 4, 6, 8, 10, 12, and 16 for medical management sessions, during which daily drinking since the last visit was assessed with the calendar-based Timeline Follow-back interview (Sobell and Sobell, 1992). Participants who dropped out after randomization were compensated to return at week 16 to provide missing drinking data. Forty participants ultimately dropped out, at similar rates across medication groups, but full drinking data were available on 89% of participants.
Methylation assay. Genomic DNA was quantitated using a Qubit Fluorometer (Thermo Fisher Scientific, Waltham, MA). An Infinium MethylationEPIC BeadChip (Illumina, San Diego, CA), which assays methylation at 866,895 cytosine residues, 99.7% of which are CpG sites, was used to generate a comprehensive genome-wide profile of DNA methylation. For each subject, 500 ng genomic DNA was bisulfate converted, denatured, and amplified, fragmented, resuspended, and hybridized to the BeadChips (eight samples per chip). […]

[2] = tested on: individuals with Alcohol Use Disorder; conditions: cited from earlier work
[3] = month 3, high SLC6A3 promoter and low OPRM1 promoter methylation

Q: What does the source list for `O=C1CC[C@@]2(O)[C@H]3Cc4ccc(O)c5c4[C@@]2(CCN3CC2CC2)[C@H]1O5` [naltrexone]?
A: effect size (Cohen's d) for PHDD, naltrexone relative to placebo ([1]; across all study months, lower COMT promoter and lower OPRM1 promoter methylation): 0.85; mean difference between naltrexone and placebo in PHDD ([1]; across all study months, lower COMT promoter and lower OPRM1 promoter methylation (median split)): 19.7 % HDD; effect size (Cohen's d) for PHDD, naltrexone relative to placebo ([1]; across all study months, lower SLC6A3 VNTR and lower OPRM1 promoter methylation): 1.25; mean difference between naltrexone and placebo in PHDD ([1]; across all study months, lower SLC6A3 VNTR and lower OPRM1 promoter methylation (median split)): 28.5 % HDD; simple effect of medication on PHDD ([1]; any time point, any other combination of SLC6A3 and OPRM1 promoter methylation (except high SLC6A3/low OPRM1)): not significant; heavy drinking days ([1]; lower methylation of OPRM1 and SLC6A3 or COMT promoters, relative to placebo and to higher methylation): significantly fewer heavy drinking days; effect size (Cohen's d) for PHDD, naltrexone relative to placebo ([1]; month 2, lower SLC6A3 promoter and lower OPRM1 promoter methylation): 0.61; mean difference between naltrexone and placebo in PHDD ([1]; month 2, lower SLC6A3 promoter and lower OPRM1 promoter methylation (median split), naltrexone 50 mg): 16.2 % HDD; effect size (Cohen's d) for PHDD, naltrexone relative to placebo [1, 3]: 0.98; mean difference between naltrexone and placebo in PHDD [1, 3]: 25.7 % HDD; effect size (Cohen's d) for PHDD, naltrexone relative to placebo ([1]; month 3, lower SLC6A3 promoter and lower OPRM1 promoter methylation): 0.62; mean difference between naltrexone and placebo in PHDD ([1]; month 3, lower SLC6A3 promoter and lower OPRM1 promoter methylation (median split)): 16.5 % HDD; effect of naltrexone, relative to placebo, on PHDD ([1]; participants with lower COMT promoter and OPRM1 promoter methylation): reduced PHDD more; effect of naltrexone, relative to placebo, on PHDD ([1]; participants with lower SLC6A3 VNTR and OPRM1 promoter methylation): reduced PHDD more; effect of naltrexone, relative to placebo, on PHDD ([1]; participants with lower SLC6A3 promoter and OPRM1 promoter methylation): reduced PHDD more; effect sizes for naltrexone, relative to placebo, on heavy drinking ([1]; subgroups in which it was most effective): 0.53-1.04; overall effect of naltrexone on heavy drinking ([2]; across all AUD individuals (Maisel et al, 2013)): small; effect on heavy drinking ([2]; individuals with AUD (Jonas et al., 2014a)): reduces heavy drinking
